Assay results taken from patent US20230339865A1, “QUINAZOLINE-DERIVED HCK INHIBITORS FOR USE IN THE TREATMENT OF MYD88 MUTATED DISEASES” (Dana-Farber Cancer Institute, Inc., priority 2020, published 2023).
pIC50: −log10 of the molar value. One block for each compound: values may come before it.

Experiments:
[1] = microsome stability (mouse); format: in vitro ADME; conditions: microsomes, read-out: microsome stability (T1/2, min)
Protocol: (§1) The compounds were tested against several different cell lines, and the ED50 values determined, along with the microsome stability.

[2] = microsome stability (rat); format: in vitro ADME; conditions: microsomes, read-out: microsome stability (T1/2, min)
Protocol: as §1

[3] = microsome stability (human); format: in vitro ADME; conditions: microsomes, read-out: microsome stability (T1/2, min)
Protocol: as §1

[4] = biological target: T1, MAP4K2 (GCK) (Homo sapiens, UniProt Q12851); assay: Invitrogen kinase assay MAP4K2 (GCK); format: biochemical
T1 construct: purchased Invitrogen
T1 sequence (Q12851 whole entry): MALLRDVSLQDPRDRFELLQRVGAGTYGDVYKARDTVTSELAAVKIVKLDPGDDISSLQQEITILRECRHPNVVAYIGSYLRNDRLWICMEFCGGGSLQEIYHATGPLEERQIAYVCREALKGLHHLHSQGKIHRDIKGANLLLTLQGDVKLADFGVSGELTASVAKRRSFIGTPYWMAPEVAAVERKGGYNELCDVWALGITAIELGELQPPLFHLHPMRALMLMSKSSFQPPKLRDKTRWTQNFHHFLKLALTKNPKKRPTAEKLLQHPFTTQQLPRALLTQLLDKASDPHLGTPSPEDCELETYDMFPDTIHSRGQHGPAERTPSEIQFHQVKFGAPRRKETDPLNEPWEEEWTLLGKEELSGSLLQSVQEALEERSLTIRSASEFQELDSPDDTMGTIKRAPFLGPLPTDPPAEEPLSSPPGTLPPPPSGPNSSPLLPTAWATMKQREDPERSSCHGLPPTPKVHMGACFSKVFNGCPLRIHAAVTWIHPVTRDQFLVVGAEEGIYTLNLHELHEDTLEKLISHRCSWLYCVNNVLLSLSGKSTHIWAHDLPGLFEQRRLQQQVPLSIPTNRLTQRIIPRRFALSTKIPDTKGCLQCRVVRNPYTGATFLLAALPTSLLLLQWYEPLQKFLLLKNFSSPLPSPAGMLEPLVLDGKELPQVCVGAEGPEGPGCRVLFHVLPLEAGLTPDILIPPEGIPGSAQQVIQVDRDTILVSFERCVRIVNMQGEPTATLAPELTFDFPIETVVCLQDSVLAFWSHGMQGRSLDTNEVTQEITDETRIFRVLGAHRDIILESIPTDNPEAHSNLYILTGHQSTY
Protocol: (§2) The IC50 values were also determined for Compound (I-1) using an Invitrogen kinase assay. The results are shown in Table 2, along with comparison data with TL2-059.

[5] = biological target: T2, LYN A (Homo sapiens, UniProt P07948); assay: Invitrogen kinase assay LYN A; format: biochemical
T2 construct: purchased Invitrogen
Protocol: as §2

[6] = biological target: T3, MAPK14 (p38 alpha) Direct (Homo sapiens, UniProt Q16539); assay: Invitrogen kinase assay MAPK14 (p38 alpha) Direct; format: biochemical
T3 construct: purchased Invitrogen
T3 sequence (Q16539 whole entry): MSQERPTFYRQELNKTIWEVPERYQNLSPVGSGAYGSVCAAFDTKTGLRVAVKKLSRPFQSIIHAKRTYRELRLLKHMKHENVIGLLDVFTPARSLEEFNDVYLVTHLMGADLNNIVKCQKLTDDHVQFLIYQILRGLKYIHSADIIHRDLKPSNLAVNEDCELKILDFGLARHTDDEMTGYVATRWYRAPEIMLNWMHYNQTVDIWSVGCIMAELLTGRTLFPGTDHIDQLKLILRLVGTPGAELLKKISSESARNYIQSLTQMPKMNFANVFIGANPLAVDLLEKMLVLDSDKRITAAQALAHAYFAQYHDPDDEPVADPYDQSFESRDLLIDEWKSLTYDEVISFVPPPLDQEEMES
Protocol: as §2

[7] = biological target: T4, FER (Homo sapiens, UniProt P16591); assay: Invitrogen kinase assay FER; format: biochemical
T4 construct: purchased Invitrogen
Protocol: as §2

[8] = biological target: T5, MAP4K1 (HPK1) (Homo sapiens, UniProt Q92918); assay: Invitrogen kinase assay MAP4K1 (HPK1); format: biochemical
T5 construct: purchased Invitrogen
Protocol: as §2

[9] = biological target: T6, FES (FPS) (Homo sapiens, UniProt P07332); assay: Invitrogen kinase assay FES (FPS); format: biochemical
T6 construct: purchased Invitrogen
Protocol: as §2

[10] = biological target: T7, ABL1 (Homo sapiens, UniProt P00519); assay: Invitrogen kinase assay ABL1; format: biochemical
T7 construct: purchased Invitrogen
T7 sequence (P00519 whole entry): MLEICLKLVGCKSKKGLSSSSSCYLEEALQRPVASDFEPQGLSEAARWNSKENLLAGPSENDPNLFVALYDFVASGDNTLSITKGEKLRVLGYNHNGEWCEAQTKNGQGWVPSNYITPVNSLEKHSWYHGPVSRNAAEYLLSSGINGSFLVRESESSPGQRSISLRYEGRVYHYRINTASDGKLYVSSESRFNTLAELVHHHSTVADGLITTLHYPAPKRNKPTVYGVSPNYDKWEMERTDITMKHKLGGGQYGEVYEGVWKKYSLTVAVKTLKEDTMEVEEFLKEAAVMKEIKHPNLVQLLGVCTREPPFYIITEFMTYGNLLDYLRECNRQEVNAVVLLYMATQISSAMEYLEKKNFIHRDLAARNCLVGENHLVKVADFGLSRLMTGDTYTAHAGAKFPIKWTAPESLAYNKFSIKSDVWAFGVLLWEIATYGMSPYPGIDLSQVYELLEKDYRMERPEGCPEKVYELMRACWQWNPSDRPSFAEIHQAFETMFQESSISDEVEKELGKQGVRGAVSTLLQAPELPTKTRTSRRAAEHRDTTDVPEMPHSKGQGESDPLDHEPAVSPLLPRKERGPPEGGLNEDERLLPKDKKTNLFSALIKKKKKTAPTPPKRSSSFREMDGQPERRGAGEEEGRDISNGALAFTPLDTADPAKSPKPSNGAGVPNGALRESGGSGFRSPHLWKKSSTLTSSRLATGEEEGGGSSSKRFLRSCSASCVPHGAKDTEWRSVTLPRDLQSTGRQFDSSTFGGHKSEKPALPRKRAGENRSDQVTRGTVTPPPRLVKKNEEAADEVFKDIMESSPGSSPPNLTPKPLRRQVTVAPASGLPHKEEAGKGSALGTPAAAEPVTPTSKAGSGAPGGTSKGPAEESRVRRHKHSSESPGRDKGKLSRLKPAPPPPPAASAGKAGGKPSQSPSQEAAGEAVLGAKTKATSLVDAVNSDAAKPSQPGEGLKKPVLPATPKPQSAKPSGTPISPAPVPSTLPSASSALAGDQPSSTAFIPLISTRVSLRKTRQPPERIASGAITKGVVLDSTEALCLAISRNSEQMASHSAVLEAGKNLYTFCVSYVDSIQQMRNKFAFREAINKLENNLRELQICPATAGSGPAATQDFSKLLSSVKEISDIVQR
Protocol: as §2

[11] = biological target: T8, ABL2 (Arg) (Homo sapiens, UniProt P42684); assay: Invitrogen kinase assay ABL2 (Arg); format: biochemical
T8 construct: purchased Invitrogen
T8 sequence (P42684 whole entry): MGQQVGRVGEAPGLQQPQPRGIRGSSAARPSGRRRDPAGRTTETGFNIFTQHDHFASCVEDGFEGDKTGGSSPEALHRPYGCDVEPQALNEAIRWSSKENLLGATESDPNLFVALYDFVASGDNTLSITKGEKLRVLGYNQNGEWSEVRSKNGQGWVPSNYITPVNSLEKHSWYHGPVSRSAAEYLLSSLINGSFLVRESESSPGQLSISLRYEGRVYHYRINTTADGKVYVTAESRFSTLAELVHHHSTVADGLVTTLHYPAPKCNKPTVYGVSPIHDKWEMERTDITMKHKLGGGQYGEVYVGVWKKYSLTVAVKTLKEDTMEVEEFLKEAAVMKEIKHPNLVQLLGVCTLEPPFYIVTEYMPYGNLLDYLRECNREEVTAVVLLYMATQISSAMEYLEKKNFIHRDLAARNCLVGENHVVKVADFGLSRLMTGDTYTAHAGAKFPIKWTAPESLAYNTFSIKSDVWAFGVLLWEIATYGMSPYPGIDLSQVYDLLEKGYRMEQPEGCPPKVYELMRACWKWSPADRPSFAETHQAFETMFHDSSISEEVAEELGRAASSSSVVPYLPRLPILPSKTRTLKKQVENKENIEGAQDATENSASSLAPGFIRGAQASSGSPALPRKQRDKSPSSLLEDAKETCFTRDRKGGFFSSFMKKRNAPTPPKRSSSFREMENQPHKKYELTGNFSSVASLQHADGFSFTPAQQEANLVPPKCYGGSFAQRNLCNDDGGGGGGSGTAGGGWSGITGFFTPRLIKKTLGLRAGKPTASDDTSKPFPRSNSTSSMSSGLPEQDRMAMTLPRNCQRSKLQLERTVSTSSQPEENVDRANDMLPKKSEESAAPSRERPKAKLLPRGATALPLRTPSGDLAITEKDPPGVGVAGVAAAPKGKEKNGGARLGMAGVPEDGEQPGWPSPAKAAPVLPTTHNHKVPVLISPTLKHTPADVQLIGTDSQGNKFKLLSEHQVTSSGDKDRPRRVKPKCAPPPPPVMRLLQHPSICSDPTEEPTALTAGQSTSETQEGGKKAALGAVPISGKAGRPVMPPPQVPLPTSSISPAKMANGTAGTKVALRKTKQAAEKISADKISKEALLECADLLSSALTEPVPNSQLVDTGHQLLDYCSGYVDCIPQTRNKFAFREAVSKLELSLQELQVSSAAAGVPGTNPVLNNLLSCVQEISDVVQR
Protocol: as §2

[12] = biological target: T9, MAP3K7/MAP3K7IP1 (TAK1-TAB1) (Homo sapiens, UniProt O43318); assay: Invitrogen kinase assay MAP3K7/MAP3K7IP1 (TAK1-TAB1); format: biochemical
T9 construct: purchased Invitrogen
Protocol: as §2

[13] = biological target: T10, SRC (Homo sapiens, UniProt P12931); assay: Invitrogen kinase assay SRC; format: biochemical
T10 construct: purchased Invitrogen
Protocol: as §2

[14] = biological target: T11, LCK (Homo sapiens, UniProt P06239); assay: Invitrogen kinase assay LCK; format: biochemical
T11 construct: purchased Invitrogen
Protocol: as §2

[15] = biological target: T12, TAOK3 (JIK) (Homo sapiens, UniProt Q9H2K8); assay: Invitrogen kinase assay TAOK3 (JIK); format: biochemical
T12 construct: purchased Invitrogen
Protocol: as §2

[16] = biological target: T13, FGR (Homo sapiens, UniProt P09769); assay: Invitrogen kinase assay FGR; format: biochemical
T13 construct: purchased Invitrogen
Protocol: as §2

[17] = biological target: T14, TAOK2 (TAO1) (Homo sapiens, UniProt Q9UL54); assay: Invitrogen kinase assay TAOK2 (TAO1); format: biochemical
T14 construct: purchased Invitrogen
Protocol: as §2

[18] = biological target: T15, FYN (Homo sapiens, UniProt P06241); assay: Invitrogen kinase assay FYN; format: biochemical
T15 construct: purchased Invitrogen
Protocol: as §2

[19] = biological target: T16, TAOK1 (Homo sapiens, UniProt Q7L7X3); assay: Invitrogen kinase assay TAOK1; format: biochemical
T16 construct: purchased Invitrogen
T16 sequence (Q7L7X3 whole entry): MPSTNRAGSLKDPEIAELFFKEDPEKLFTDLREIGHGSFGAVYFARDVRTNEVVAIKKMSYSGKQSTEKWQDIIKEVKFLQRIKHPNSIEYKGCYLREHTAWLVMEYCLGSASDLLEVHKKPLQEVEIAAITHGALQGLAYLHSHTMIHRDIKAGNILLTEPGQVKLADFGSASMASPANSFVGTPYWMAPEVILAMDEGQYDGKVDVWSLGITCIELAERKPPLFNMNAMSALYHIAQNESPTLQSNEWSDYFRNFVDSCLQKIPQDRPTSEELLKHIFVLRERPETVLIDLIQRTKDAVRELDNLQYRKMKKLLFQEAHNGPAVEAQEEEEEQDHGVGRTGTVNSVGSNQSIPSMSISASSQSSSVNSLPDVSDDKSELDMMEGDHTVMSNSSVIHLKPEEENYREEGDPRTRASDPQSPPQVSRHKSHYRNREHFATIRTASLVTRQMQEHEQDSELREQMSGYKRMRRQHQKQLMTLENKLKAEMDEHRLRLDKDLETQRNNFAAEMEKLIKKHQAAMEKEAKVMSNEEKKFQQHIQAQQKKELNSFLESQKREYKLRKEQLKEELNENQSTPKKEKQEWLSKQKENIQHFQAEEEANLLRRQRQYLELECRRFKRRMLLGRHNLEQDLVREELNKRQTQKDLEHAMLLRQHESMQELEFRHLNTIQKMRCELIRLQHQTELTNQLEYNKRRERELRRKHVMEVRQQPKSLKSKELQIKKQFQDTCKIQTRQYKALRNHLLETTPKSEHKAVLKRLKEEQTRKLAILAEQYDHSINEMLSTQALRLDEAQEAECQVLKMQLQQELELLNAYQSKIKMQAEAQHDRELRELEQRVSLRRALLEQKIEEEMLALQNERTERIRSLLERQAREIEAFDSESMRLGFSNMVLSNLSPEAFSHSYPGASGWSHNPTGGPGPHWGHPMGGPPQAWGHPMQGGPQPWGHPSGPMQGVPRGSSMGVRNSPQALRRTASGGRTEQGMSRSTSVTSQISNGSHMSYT
Protocol: as §2

[20] = test system: MYD88 mutated ABC DLBCL TMD8 xenograft; assay: In-vivo rat efficacy study in MYD88 mutated ABC DLBCL TMD8 xenografted rats
Protocol: Example 1. In-Vivo Rat Efficacy Study in MYD88 Mutated ABC DLBCL TMD8 Xenografted Rats
A rat efficacy study for was carried out with Compound (I-1) using an MYD88 mutated ABC DLBCL TMD8 xenografted rat model.

[21] = test system: HCK, BTK, and NFκB; assay: Pharmacodynamic studies in mice; format: in vivo
[22] = biological target: T17, HCK (Homo sapiens, UniProt P08631); assay: HCK inhibition in MYD88 mutated cells; format: cell-based; conditions: MYD88 mutated WM and ABC DLBCL cell lines and primary WM cells
T17 sequence (P08631 whole entry): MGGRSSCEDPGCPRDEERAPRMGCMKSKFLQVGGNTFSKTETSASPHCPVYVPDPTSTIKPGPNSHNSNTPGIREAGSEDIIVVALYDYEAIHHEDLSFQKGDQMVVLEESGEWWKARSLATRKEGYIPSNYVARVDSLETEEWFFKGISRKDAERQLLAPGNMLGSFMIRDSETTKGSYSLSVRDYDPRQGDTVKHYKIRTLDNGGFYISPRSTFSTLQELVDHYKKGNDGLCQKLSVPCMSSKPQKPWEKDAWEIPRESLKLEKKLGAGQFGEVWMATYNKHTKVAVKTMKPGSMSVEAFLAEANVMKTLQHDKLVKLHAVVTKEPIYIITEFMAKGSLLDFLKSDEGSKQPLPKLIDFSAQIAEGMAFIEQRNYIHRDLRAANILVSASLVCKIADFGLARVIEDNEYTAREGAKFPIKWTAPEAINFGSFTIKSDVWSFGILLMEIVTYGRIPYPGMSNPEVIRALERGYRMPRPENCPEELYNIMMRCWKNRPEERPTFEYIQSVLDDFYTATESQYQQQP

[23] = test system: MYD88 mutated WM and ABC DLBCL cell lines, primary WM cells; assay: Apoptotic effects in MYD88 mutated cells; format: cell-based; conditions: vs. ibrutinib or A419259
[24] = test system: healthy donor B- and T-cells; assay: Effect on healthy donor B- and T-cells; format: cell-based
[25] = biological target: T17, HCK; assay: Invitrogen kinase assay HCK; format: biochemical; design: purchased Invitrogen
Protocol: as §2

SMILES: COc1cc2c(Oc3cc(C(=O)Nc4cccc(C(F)(F)F)c4)ccc3C)ncnc2cc1NCCN1CCN(C)CC1 [Compound (I-4), 3-(6-methoxy-7-(2-(4-methylpiperazin-1-yl)ethylamino)quinazolin-4-yloxy)-4-methyl-N-(3-(trifluoromethyl)phenyl)benzamide]
half-life [1]: 5.7 min

SMILES: CCN1CCN(Cc2ccc(NC(=O)c3ccc(C)c(Oc4ncnc5cc(NC)ccc45)c3)cc2C(F)(F)F)CC1 [Compound (I-14), N-(4-((4-ethylpiperazin-1-yl)methyl)-3-(trifluoromethyl)phenyl)-4-methyl-3-(7-(methylamino)quinazolin-4-yloxy)benzamide]
half-life [1]: 20.4 min

SMILES: CCN1CCN(Cc2ccc(NC(=O)c3ccc(C)c(Oc4ncnc5cc(NC)c(OC)cc45)c3)cc2C(F)(F)F)CC1 [Compound (I-1), N-(4-((4-ethylpiperazin-1-yl)methyl)-3-(trifluoromethyl)phenyl)-3-(6-methoxy-7-(methylamino)quinazolin-4-yloxy)-4-methylbenzamide]
half-life [1]: 42.4 min | half-life [2]: 60.2 min | half-life [3]: 79.3 min | pIC50 [4]: 8.08 | pIC50 [5]: 8.06 | pIC50 [6]: 7.10 | pIC50 [7]: 8.01 | pIC50 [8]: 7.93 | pIC50 [9]: 7.96 | pIC50 [10]: 7.49 | pIC50 [11]: 7.34 | pIC50 [12]: 7.62 | pIC50 [13]: 7.11 | pIC50 [14]: 8.33 | pIC50 [15]: 6.38 | pIC50 [16]: 8.10 | pIC50 [17]: 7.21 | pIC50 [18]: 6.38 | pIC50 [19]: 6.71 | Mean tumor volume compared to vehicle ([20]; 30 mg/kg, TMD8 xenografted rat model): lower Mean tumor volume compared to vehicle | survival days ([20]; TMD8 xenograft model, vehicle 22 survival days): 43 days | Pharmacodynamic inhibition of HCK, BTK, and NFκB [21]: inhibition of HCK, BTK, and NFκB | tumor redistribution [21]: dose-related tumor redistribution | HCK inhibition [22]: inhibits HCK in a dose dependent Type II inhibition | apoptotic effects [23]: potent apoptotic effects | effect on healthy donor B- and T-cells [24]: sparing of healthy donor B- and T-cells | pIC50 [25]: 8.13

More lines, now with the values ahead:

half-life [1]: 41.7 min
SMILES: CCN1CCN(Cc2ccc(NC(=O)c3ccc(C)c(Oc4ncnc5cc(N)c(OC)cc45)c3)cc2C(F)(F)F)CC1 [Compound (I-2), 3-(7-amino-6-methoxyquinazolin-4-yloxy)-N-(4-((4-ethylpiperazin-1-yl)methyl)-3-(trifluoromethyl)phenyl)-4-methylbenzamide]

half-life [1]: 8.6 min
SMILES: CCN1CCN(Cc2ccc(NC(=O)c3ccc(C)c(Oc4ncnc5cc6[nH]cnc6cc45)c3)cc2C(F)(F)F)CC1 [Compound (I-16), 3-(3H-imidazo[4,5-g]quinazolin-8-yloxy)-N-(4-((4-ethylpiperazin-1-yl)methyl)-3-(trifluoromethyl)phenyl)-4-methylbenzamide]
